Results published in patent publication US20220226299A1 (NIPPON CHEMIPHAR CO., LTD., priority 2019, published 2022).
Where a name gives a salt, the structure may show the parent alone.

Molecular target: T1, human Cav3.2 channels (Homo sapiens, UniProt O95180)
T1 construct: human Cav3.2 channel ORF (Open Reading Frame) gene; expressed in transfected cells; host or cells: HEK293 cells (ATCC No. CRL-1573), pcDNA3.1(+) plasmid
Assay: T-type calcium blocking action: intracellular calcium (Fluo-4 AM fluorescence) in HEK293 cells steadily expressing human Cav3.2 channels
Type: cell-based
Details: HEK293 cells expressing human Cav3.2; KCl-stimulated calcium influx, Fluo-4 fluorescence; Tables 1 to 3
Excerpt: T-Type Calcium Blocking Action
(1) Construction of Cells Steadily Expressing Human Cav3.2 Channels
A sequence obtained by adding HindIII site and a kozak sequence (GCCACC) to the 5′-side of human Cav3.2 channel ORF (Open Reading Frame) gene and adding a KpnI site to the 3′-side of the gene, was incorporated into pcDNA3.1(+) (Thermo Fisher Scientific, #V790-20), and the plasmid was introduced into HEK293 cells (ATCC No. CRL-1573) according to the protocol of FuGENE (registered trademark) HD Transfection Reagent (Promega, #E2311).
(2) Method for Measuring Intracellular Calcium Concentration
The cells steadily expressing human Cav3.2 channels produced by testing method (1) were seeded on a 96-well plate (Dulbecco's modified Eagle medium (DMEM) medium containing 10% fetal bovine serum (FBS) was used as a medium). The cells were seeded and cultured for 48 hours under conditions of 37° C. and 5% CO2. Thereafter, the cells were washed with buffer A in order to remove the medium. Each well was treated with 80 μL of a fluorescent dye solution produced by mixing 22 μg of a fluorescent calcium indicator, Fluo-4 AM (Dojindo Laboratories, #F311), 20 μL of DMSO, 1 μL of 10% Pluronic F-127 (Thermo Fisher Scientific, #P6866), and 4 mL of buffer A. The cells were allowed to stand for 45 minutes at room temperature under light-shielded conditions, and then washed with buffer B in order to completely replace the solution. 70 μL of DMSO having the same concentration as that of a test compound as a negative control and 70 μL of a mixture containing 1 μM of a known blocker RQ-00311651 and the test compound as a positive control were each added to each well in a form of being contained in the buffer B. The test compound was dissolved in 100% DMSO and added at a final concentration of 0.1%. Then, the cells were further allowed to stand at room temperature under light-shielded conditions for 15 minutes and placed in a microplate reader EnVision (PerkinElmer). Background fluorescence was measured in each well, and then a 5 μg/mL grammicidin solution was added to buffer B at 10 μL/well. After 90 seconds, baseline fluorescence was measured. Thereafter, 83.8 mM KCl was added to buffer B at 20 μL/well, and an increase in fluorescence caused by calcium influx generated by the stimulus was measured for 10 seconds. A blocking percentage was calculated from a maximum fluorescence increase value from a baseline, a logarithmic value of a compound concentration and blockery activity were plotted, and thereby an IC50 value was calculated. In the measurement, fluorescence at 510 nm that was emitted when the cells were irradiated with excitation light at 485 nm was observed.
Buffer A: 140 mM NaCl, 5 mM KCl, 1 mM MgCl2, 0.5 mM CaCl2, 10 mM Glucose, 10 mM HEPES, pH 7.3
Buffer B: 137.9 mM Choline-Cl, 4.1 mM KCl, 1 mM MgCl2, 0.5 mM CaCl2, 10 mM Glucose, 10 mM HEPES, pH 7.3

T1 sequence (O95180 whole entry): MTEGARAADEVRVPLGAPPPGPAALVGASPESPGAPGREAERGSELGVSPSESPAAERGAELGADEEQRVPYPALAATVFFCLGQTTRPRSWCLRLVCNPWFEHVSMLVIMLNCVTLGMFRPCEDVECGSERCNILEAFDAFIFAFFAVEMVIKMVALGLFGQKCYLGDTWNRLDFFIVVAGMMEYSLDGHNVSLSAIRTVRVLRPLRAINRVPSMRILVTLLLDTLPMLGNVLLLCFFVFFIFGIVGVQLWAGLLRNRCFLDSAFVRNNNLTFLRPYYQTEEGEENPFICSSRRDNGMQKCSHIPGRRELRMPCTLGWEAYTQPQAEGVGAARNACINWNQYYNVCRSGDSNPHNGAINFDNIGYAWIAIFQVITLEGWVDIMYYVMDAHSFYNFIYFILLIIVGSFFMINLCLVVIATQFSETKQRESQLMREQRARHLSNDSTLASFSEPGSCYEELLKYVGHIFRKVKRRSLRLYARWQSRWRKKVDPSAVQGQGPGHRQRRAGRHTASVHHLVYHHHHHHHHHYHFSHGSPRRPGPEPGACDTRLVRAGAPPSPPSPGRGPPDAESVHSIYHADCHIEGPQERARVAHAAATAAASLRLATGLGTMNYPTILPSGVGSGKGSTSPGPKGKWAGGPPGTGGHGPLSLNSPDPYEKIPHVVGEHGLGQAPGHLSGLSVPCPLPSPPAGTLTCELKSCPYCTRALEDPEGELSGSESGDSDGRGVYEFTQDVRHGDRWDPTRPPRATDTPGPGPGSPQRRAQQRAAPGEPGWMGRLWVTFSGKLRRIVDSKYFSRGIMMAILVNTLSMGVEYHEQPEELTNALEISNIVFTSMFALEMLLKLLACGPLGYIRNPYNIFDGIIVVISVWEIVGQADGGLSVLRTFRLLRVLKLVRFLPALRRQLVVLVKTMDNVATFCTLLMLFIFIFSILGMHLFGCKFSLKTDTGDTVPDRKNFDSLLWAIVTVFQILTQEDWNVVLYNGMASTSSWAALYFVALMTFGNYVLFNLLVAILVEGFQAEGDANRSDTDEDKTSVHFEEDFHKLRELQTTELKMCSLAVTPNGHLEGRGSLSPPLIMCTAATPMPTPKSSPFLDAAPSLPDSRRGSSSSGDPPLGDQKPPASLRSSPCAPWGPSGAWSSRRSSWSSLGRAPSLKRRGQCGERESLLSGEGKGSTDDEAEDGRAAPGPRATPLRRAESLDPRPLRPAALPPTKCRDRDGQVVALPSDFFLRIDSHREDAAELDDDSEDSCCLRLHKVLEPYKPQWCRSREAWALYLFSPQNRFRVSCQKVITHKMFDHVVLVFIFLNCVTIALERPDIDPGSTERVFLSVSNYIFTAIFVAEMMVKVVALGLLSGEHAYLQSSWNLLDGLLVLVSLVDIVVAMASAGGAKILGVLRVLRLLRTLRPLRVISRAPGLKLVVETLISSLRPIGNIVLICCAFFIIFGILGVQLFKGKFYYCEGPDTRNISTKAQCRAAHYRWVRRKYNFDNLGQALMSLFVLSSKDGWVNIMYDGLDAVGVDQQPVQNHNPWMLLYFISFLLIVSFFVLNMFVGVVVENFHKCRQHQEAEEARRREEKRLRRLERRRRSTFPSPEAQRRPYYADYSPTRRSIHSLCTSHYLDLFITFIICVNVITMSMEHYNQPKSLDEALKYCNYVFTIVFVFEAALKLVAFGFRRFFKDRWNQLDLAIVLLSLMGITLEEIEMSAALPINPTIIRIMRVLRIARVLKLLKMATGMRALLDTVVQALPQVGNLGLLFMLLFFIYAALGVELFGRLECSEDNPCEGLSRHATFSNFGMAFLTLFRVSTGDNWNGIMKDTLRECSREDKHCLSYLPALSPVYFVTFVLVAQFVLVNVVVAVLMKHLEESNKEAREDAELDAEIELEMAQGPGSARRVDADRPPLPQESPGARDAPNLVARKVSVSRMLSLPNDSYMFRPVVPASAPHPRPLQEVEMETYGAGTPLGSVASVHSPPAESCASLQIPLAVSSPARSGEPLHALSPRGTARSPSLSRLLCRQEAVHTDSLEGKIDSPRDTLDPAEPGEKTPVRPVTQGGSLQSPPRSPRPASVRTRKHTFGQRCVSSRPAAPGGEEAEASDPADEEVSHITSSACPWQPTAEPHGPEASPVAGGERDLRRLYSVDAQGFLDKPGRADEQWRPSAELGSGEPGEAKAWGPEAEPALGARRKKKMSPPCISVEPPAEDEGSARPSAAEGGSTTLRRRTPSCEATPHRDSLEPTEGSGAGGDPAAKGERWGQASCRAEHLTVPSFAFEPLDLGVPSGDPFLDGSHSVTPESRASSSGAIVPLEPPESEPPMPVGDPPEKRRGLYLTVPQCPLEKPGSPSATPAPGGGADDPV

Row | Compound | IC50
1 | O=C(N[C@@H]1CCN(c2nc(C(F)(F)F)cs2)C1)[C@H]1C[C@@H]1c1nc2ccccc2o1 [Example 47, (1S,2S)-2-(benzo[d]oxazol-2-yl)-N—((R)-1-(4-(trifluoromethyl)thiazol-2-yl)pyrrolidin-3-yl)cyclopropane-1-carboxyamide] | 350 nM
2 | O=C(N[C@@H]1CCN(c2ccc(C(F)(F)F)nc2)C1)[C@H]1C[C@@H]1c1nc2cc(F)ccc2o1 [Example 51] | 120 nM
3 | O=C(N[C@@H]1CCCN(c2ccc(C(F)(F)F)cc2)C1)[C@H]1C[C@@H]1c1nc2ccccc2[nH]1 [Example 65, (1S,2S)-2-(1H-benzo[d]imidazol-2-yl)-N—((R)-1-(4-(trifluoromethyl)phenyl)piperidin-3-yl)cyclopropane-1-carboxyamide] | 8900 nM
4 | CC(C)(C)c1csc(N2CC[C@@H](NC(=O)[C@H]3C[C@@H]3c3nc4ccccc4[nH]3)C2)n1 [Example 68, (1S,2S)-2-(1H-benzo[d]imidazol-2-yl)-N—((R)-1-(4-(tert-butyl)thiazol-2-yl)pyrrolidin-3-yl)cyclopropane-1-carboxyamide] | 75 nM
5 | O=C(N[C@@H]1CCN(c2nc3ccc(F)cc3s2)C1)[C@H]1C[C@@H]1c1nc2ccccc2[nH]1 [Example 72, (1S,2S)-2-(1H-benzo[d]imidazol-2-yl)-N—((R)-1-(6-fluorobenzo[d]thiazol-2-yl)pyrrolidin-3-yl)cyclopropane-1-carboxyamide] | 210 nM
6 | O=C(N[C@@H]1CCN(c2ccc(C(F)(F)F)nc2)C1)[C@H]1C[C@@H]1c1nc2ccccc2n1C1CC1 [Example 73, (1S,2S)-2-(1-cyclopropyl-1H-benzo[d]imidazol-2-yl)-N—((R)-1-(6-(trifluoromethyl)pyridin-3-yl)pyrrolidin-3-yl)cyclopropane-1-carboxyamide] | 1000 nM
7 | O=C(N[C@@H]1CCN(c2cncc(Br)c2)C1)[C@H]1C[C@@H]1c1nc2ccccc2[nH]1 [Example 76, (1S,2S)-2-(1H-benzo[d]imidazol-2-yl)-N—((R)-1-(5-bromopyridin-3-yl)pyrrolidin-3-yl)cyclopropane-1-carboxyamide] | 67 nM
8 | O=C(Cc1ccc2ncccc2c1)N[C@@H]1CCN(c2cncc(C(F)(F)F)c2)C1 [Example 77, (R)-2-(quinolin-6-yl)-N-(1-(5-(trifluoromethyl)pyridin-3-yl)pyrrolidin-3-yl)acetamide] | 200 nM
9 | O=C(Cc1c[nH]c2ccccc12)N[C@@H]1CCN(c2cncc(C(F)(F)F)c2)C1 [Example 78, (R)-2-(1H-indol-3-yl)-N-(1-(5-(trifluoromethyl)pyridin-3-yl)pyrrolidin-3-yl)acetamide] | 270 nM
10 | O=C(Cc1ccc(C2CC2)cc1)N[C@@H]1CCN(c2nc(C(F)(F)F)co2)C1 [Example 80, (R)-2-(4-cyclopropylphenyl)-N-(1-(4-(trifluoromethyl)oxazol-2-yl)pyrrolidin-3-yl)acetamide] | 720 nM
11 | Cn1nc(CC(=O)N[C@@H]2CCN(c3cncc(C(F)(F)F)c3)C2)cc1C(F)(F)F [Example 81, (R)-2-(1-methyl-5-(trifluoromethyl)-1H-pyrazol-3-yl)-N-(1-(5-(trifluoromethyl)pyridin-3-yl)pyrrolidin-3-yl) acetamide] | 550 nM
12 | O=C(Cc1ccc(C(F)(F)F)nc1)N[C@@H]1CCN(c2cncc(C(F)(F)F)c2)C1 [Example 82, (R)-2-(6-(trifluoromethyl)pyridin-3-yl)-N-(1-(5-(trifluoromethyl)pyridin-3-yl)pyrrolidin-3-yl)acetamide] | 750 nM
13 | [2H]C([2H])(C(=O)N[C@@H]1CCN(c2cncc(C(F)(F)F)c2)C1)c1ccc(C(F)(F)F)cc1 [Example 83, (R)-2-(4-(trifluoromethyl)phenyl)-N-(1-(5-(trifluoromethyl)pyridin-3-yl)pyrrolidin-3-yl)acetamide-2,2-d2] | 82 nM

Further molecules by falling IC50, results first:

Row | IC50 | Compound
14 | 680 nM | O=C(N[C@@H]1CCN(c2cncc(C(F)(F)F)c2)C1)[C@@H]1C[C@H]1c1nc2ccccc2o1 [Example 50, (1R,2R)-2-(benzo[d]oxazol-2-yl)-N—((R)-1-(5-(trifluoromethyl)pyridin-3-yl)pyrrolidin-3-yl)cyclopropane-1-carboxyamide]
15 | 310 nM | O=C(N[C@@H]1CCN(c2cccc(C(F)(F)F)c2)C1)[C@H]1C[C@@H]1c1nc2ccccc2n1C1CC1 [Example 75, (1S,2S)-2-(1-cyclopropyl-1H-benzo[d]imidazol-2-yl)-N—((R)-1-(3-(trifluoromethyl)phenyl)pyrrolidin-3-yl)cyclopropane-1-carboxyamide]
16 | 260 nM | O=C(Cc1ccc(N2CC3(COC3)C2)cc1)N[C@@H]1CCN(c2cncc(C(F)(F)F)c2)C1 [Example 46, (R)-2-(4-(2-oxa-6-azaspiro[3.3]heptan-6-yl)phenyl)-N-(1-(5-(trifluoromethyl)pyridin-3-yl)pyrrolidin-3-yl) acetamide]
17 | 240 nM | O=C(N[C@@H]1CCN(c2ccc(C(F)(F)F)nc2)C1)[C@H]1C[C@@H]1c1nc2ccc(F)cc2o1 [Example 48, (1S,2S)-2-(6-fluorobenzo[d]oxazol-2-yl)-N—((R)-1-(6-(trifluoromethyl)pyridin-3-yl)pyrrolidin-3-yl)cyclopropane-1-carboxyamide]
18 | 210 nM | O=C(N[C@@H]1CCN(c2cnc(C(F)(F)F)nc2)C1)[C@H]1C[C@@H]1c1nc2ccccc2[nH]1 [Example 70, (1S,2S)-2-(1H-benzo[d]imidazol-2-yl)-N—((R)-1-(2-(trifluoromethyl)pyrimidin-5-yl)pyrrolidin-3-yl)cyclopropane-1-carboxyamide]
19 | 150 nM | O=C(Cc1ccc2cccnc2c1)N[C@@H]1CCN(c2cncc(C(F)(F)F)c2)C1 [Example 79, (R)-2-(quinolin-7-yl)-N-(1-(5-(trifluoromethyl)pyridin-3-yl)pyrrolidin-3-yl)acetamide hydrochloride]
20 | 130 nM | O=C(N[C@@H]1CCN(c2ccc3cc(F)ccc3n2)C1)[C@H]1C[C@@H]1c1nc2ccccc2[nH]1 [Example 74, (1S,2S)-2-(1H-benzo[d]imidazol-2-yl)-N—((R)-1-(6-fluoroquinolin-2-yl)pyrrolidin-3-yl)cyclopropane-1-carboxyamide]
21 | 87 nM | O=C(N[C@@H]1CCN(c2ccc(C(F)(F)F)nc2)C1)[C@H]1C[C@@H]1c1nc2ccccc2[nH]1 [Example 54, (1S,2S)-2-(1H-benzo[d]imidazol-2-yl)-N—((R)-1-(6-(trifluoromethyl)pyridin-3-yl)pyrrolidin-3-yl)cyclopropane-1-carboxyamide]
22 | 37 nM | O=C(N[C@@H]1CCN(c2nc(C(F)(F)F)cs2)C1)[C@H]1C[C@@H]1c1nc2ccccc2[nH]1 [Example 64, (1S,2S)-2-(1H-benzo[d]imidazol-2-yl)-N—((R)-1-(4-(trifluoromethyl)thiazol-2-yl)pyrrolidin-3-yl)cyclopropane-1-carboxyamide]
23 | 7.9 nM | O=C(N[C@@H]1CCN(c2cncc(C(F)(F)F)c2)C1)[C@H]1C[C@@H]1c1nc2ccccc2[nH]1 [Example 71, (1S,2S)-2-(1H-benzo[d]imidazol-2-yl)-N—((R)-1-(5-(trifluoromethyl)pyridin-3-yl)pyrrolidin-3-yl)cyclopropane-1-carboxyamide]
24 | 7.1 nM | O=C(N[C@@H]1CCN(c2cncc(C(F)(F)F)c2)C1)[C@H]1C[C@@H]1c1nc2cc(F)ccc2o1 [Example 49, (1S,2S)-2-(5-fluorobenzo[d]oxazol-2-yl)-N—((R)-1-(5-(trifluoromethyl)pyridin-3-yl)pyrrolidin-3-yl)cyclopropane-1-carboxyamide]
